Measured values taken from PubChem BioAssay AID540268 (Broad Institute, 2011).
Active and inactive are the calls of the source. How the calls were made is not given here.

Assay: growth inhibition of yeast carrying parasite Hsp90, dose response, anti-malarial Hsp90 inhibitor project, ATP luminescence, 48 h, cherry-picked samples (AID 540268);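 on activity change, negative = inhibition: 0% = neutral control wells and -100% = positive control wells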
Details: yeast expressing the parasite Hsp90, ATP luminescence; for activity change, negative = inhibition: at 26 µM (top of the series)

Row | Structure (SMILES) | AC50 [µM] | activity change, negative = inhibition
1 | CC(C)C(=O)NC(c1cccc([N+](=O)[O-])c1)c1ccc2cccnc2c1O (configuration not stated) | 2.73 | –
2 | COC(=O)c1ccc(NC(=O)c2nc(S(=O)(=O)Cc3cccc(C)c3)ncc2Cl)cc1 | 3.99 | –
3 | c1ccc(C(=NNc2nc3ccccc3s2)c2ccccn2)cc1 | 22.3 | –
4 | Cc1c(C)c2cccnc2c2ncccc12 | 4.22 | –
5 | CC(NNC(=S)N1CCN(c2ccccn2)CC1)c1nccc2ccccc12 (configuration not stated) | 2.74 | –
6 | CC(C)(C)C(=O)NCC12C=CC(O1)C1C(=O)N(c3ccccc3)C(=O)C12 (configuration not stated) | 5.05 | –
7 | CC(C)CC(=O)NC(c1cccs1)c1ccc2cccnc2c1O (configuration not stated) | 2.72 | –
8 | COc1ccc(N2CCN(C(=O)c3ccc(Br)cc3)CC2)c([N+](=O)[O-])c1 | 0.497 | –
9 | O=C(/C=C/c1ccnc2ccccc12)c1cccs1 | 4.64 | –
10 | COc1ccc(-c2nnc3n(CCc4ccccc4)c(=O)c4ccccc4n23)c(OC)c1 | 8.97 | –
11 | O=C(CCc1ccccc1)NC(c1cccs1)c1cc(Cl)c2cccnc2c1O (configuration not stated) | 15.5 | –
12 | Oc1c(Br)cc(Br)cc1C=NCc1ccc(F)cc1 | 8.5 | –
13 | Cc1cc(C)c(S(=O)(=O)NCC23C=CC(O2)C2C(=O)N(c4ccccc4)C(=O)C23)c(C)c1 (configuration not stated) | 3.21 | –
14 | O=C1CC(N2CCCCCC2)C(=O)N1c1ccc2c(c1)OCO2 (configuration not stated) | 4.12 | –
15 | CC1(C)CC[C@]2(C(=O)O)CC[C@]3(C)C(=CC[C@@H]4[C@@]5(C)CC[C@H](O[C@@H]6O[C@H](C(=O)O)[C@@H](O)[C@H](O[C@@H]7OC[C@H](O)[C@H](O)[C@H]7O)[C@H]6O)C(C)(C)[C@@H]5CC[C@]43C)[C@@H]2C1 | 1.06 | –
16 | Cc1cc(N2C(=O)C=CC2=O)c([N+](=O)[O-])cc1C | 1.18 | –
17 | CC1=NOC(=O)/C1=C/c1ccc(-c2ccc(Cl)cc2)o1 | 2.43 | –
18 | O=C(O)c1cn(-c2ccc(N3CCCC3)c(F)c2)c2c(F)c(F)c(F)cc2c1=O | 4.36 | –
19 | CCOC(=O)c1cc([N+](=O)[O-])cc([N+](=O)[O-])c1Sc1ncnc2nc[nH]c12 | – | -6.96% (inactive)
20 | c1ccc(-c2cccc(-c3ccccn3)n2)nc1 | 1.03 | –
21 | Cc1cccc(NC(=S)NCC23C=CC(O2)C2C(=O)N(c4ccc(Cl)cc4)C(=O)C23)c1 (configuration not stated) | 8.4 | –
22 | O=[N+]([O-])c1ccc(O)c(/C=N/Nc2ccccn2)c1 | 3.31 | –
23 | Cc1c(Cl)cccc1N=Cc1ccc([N+](=O)[O-])s1 | 8.3 | –

Row | Structure (SMILES) | AC50 [µM] | activity change, negative = inhibition
24 | CCCc1cc(=O)oc2cc(OCc3ccc(C(=O)O)cc3)ccc12 | 2.73 | –
25 | O=C(NN1C(=O)/C(=C/c2ccc(O)c([N+](=O)[O-])c2)SC1=S)c1ccccc1Cl | 4.13 | –
26 | CCN(CC)c1ccc(C(=C2C=CC(=[N+](CC)CC)C=C2)c2ccc(N(CC)CC)cc2)cc1 | 0.735 | –
27 | O=C(CCCNC(=O)c1ccc(Cl)cc1)OCc1cccc(Br)c1 | 4.54 | –
28 | O=C(C=Cc1ccccn1)c1ccccc1O | 3 | –
29 | COc1ccc(Cl)cc1C(Nc1cccnc1)c1ccc2cccnc2c1O (configuration not stated) | 1.35 | –
30 | CCC1C/C(=C\c2cccnc2)C(=O)/C(=C/c2cccnc2)C1 (configuration not stated) | 9.06 | –
31 | Cc1cc(Cl)ccc1C(=O)C1CCCN(C(=O)c2cncs2)C1 (configuration not stated) | 4.62 | –
32 | Cc1ccc(-n2ncc3c2CCCC3NC(=O)c2ccccc2N2CCOCC2)cc1C (configuration not stated) | 0.984 | –
33 | CCCCCCC(=O)N(O)C1CC(=O)N(c2ccc(C)cc2)C1=O (configuration not stated) | 0.829 | –
34 | COc1cc2c(cc1/C=C/[N+](=O)[O-])OCO2 | 3.11 | –
35 | CC(=O)N(C(C)=O)N1C(=O)/C(=C/c2ccc(Cl)cc2)SC1=S | 3.28 | –
36 | O=[N+]([O-])c1ccc(NC(=S)NCCc2ccc(Cl)cc2)cc1 | 4.25 | –
37 | O=c1c2ccccc2sn1-c1ccccc1 | 9.19 | –
38 | Cc1[nH]n(-c2ccc([N+](=O)[O-])cc2)c(=O)c1C=NCCN1CCN(C(=O)c2ccccc2F)CC1 | 6.44 | –
39 | O=[N+]([O-])c1cc(S(=O)(=O)C(F)(F)F)ccc1Sc1nc2ccccc2s1 | 3.43 | –
40 | Cc1ccc(C(=O)Sc2cccccc2=O)cc1 | 6.77 | –
41 | O=C1C(Cl)=C(Oc2ccccc2)C(=O)c2ccccc21 | < 0.195 | –
42 | Clc1ccc(N=c2ssnc2Cl)cc1 | 2.69 | –
43 | Cn1cncc1C#Cc1c(-c2ccsc2)sc2ccccc12 | 7.55 | –
44 | O=[N+]([O-])c1cccc(SSc2cccc([N+](=O)[O-])c2)c1 | 4.62 | –
45 | Cc1ccc(N2C(=O)C3C4C=CC(CNC(=S)Nc5ccc(Cl)cc5)(O4)C3C2=O)cc1 (configuration not stated) | 11.9 | –
46 | Oc1ccc2ccccc2c1N=Nc1nccs1 | 0.63 | –

Row | Structure (SMILES) | AC50 [µM] | activity change, negative = inhibition
47 | O=C1/C(=C/c2ccncc2)CCC/C1=C\c1ccncc1 | 4.25 | –
48 | O=C(O)c1cccc(NN=C2c3ccccc3-c3ccccc32)c1 | 5.71 | –
49 | CCCC(=O)NC(c1ccc(Cl)cc1)c1ccc2cccnc2c1O (configuration not stated) | 7.47 | –
50 | CCCC(=O)NC1=C(Cl)C(=O)c2ccccc2C1=O | < 0.195 | –
51 | O=C(CCSc1ccc(Br)cc1)c1ccc(O)cc1 | 3.64 | –
52 | Cc1cccc(N2CCN(S(=O)(=O)c3c(C)noc3/C=C/N(C)C)CC2)c1C | 8.39 | –
53 | O=S(=O)(NC1CC2CCC1C2)c1ccc(Cl)cc1 (configuration not stated) | 3.46 | –
54 | COc1cccc(N=Nc2ccc(O)c3ncccc23)c1 | 3.57 | –
55 | CCN1CCN(C(c2ccc(C(F)(F)F)cc2)c2ccc3cccnc3c2O)CC1 (configuration not stated) | 1.54 | –
56 | CCOc1cc(S(=O)(=O)NC2CCCCCC2)ccc1F | 5.56 | –
57 | O=C(Nc1nc(-c2ccccn2)cs1)c1ccc(Br)s1 | 2.18 | –
58 | CCCC(=O)NC(c1ccccc1Cl)c1ccc2cccnc2c1O (configuration not stated) | 4.13 | –
59 | CC(C)c1ccc(-c2cc(C(=O)N3N=C(C(F)F)CC3(O)C(F)F)c3ccccc3n2)cc1 (configuration not stated) | 4.24 | –
60 | Clc1ccc(COC(Cn2ccnc2)c2ccc(Cl)cc2Cl)c(Cl)c1 (configuration not stated) | < 0.195 | –
61 | Cc1ccc(N=N/C(=C\O)C(=O)c2ccc(Cl)cc2)cc1 | 8.29 | –
62 | Cc1cccc(C(=O)NC(=S)NNC(=O)Cc2ccccc2)c1 | 4.34 | –
63 | CCCCNc1nc(N)nc(-c2cc(Cl)ccc2O)n1 | 4.58 | –
64 | Cc1ccc(N/N=C(\C#N)C(N)=S)c(C)c1 | 1.32 | –
65 | C/C(=N\Nc1nc2ccccc2s1)c1ccc(Br)s1 | 4.47 | –
66 | Cn1c(O)c(C(=Nc2ccc(F)cc2)c2ccccc2Cl)c(=O)n(C)c1=O | 2.28 | –
67 | CCCCCCCCCCC[N+](C)(C)CC/C=C1/c2ccccc2Sc2ccc(Cl)cc21 | 7.99 | –
68 | CCCCCCc1cc2cc(S(=O)(=O)c3ccc(Cl)cc3)c(=O)oc2cc1O | 0.745 | –
69 | O=C(N/N=C/c1sc2ccccc2c1O)c1ccccc1 | 1.13 | –

Row | Structure (SMILES) | AC50 [µM] | activity change, negative = inhibition
70 | O=C(OCc1ccccc1)c1ccc(NCc2cc(O)ccc2O)cc1 | 5.09 | –
71 | CC(C)OC(=O)c1ccc(NCc2cc(O)ccc2O)cc1Cl | 24.1 | –
72 | CCOC(=O)c1c(-n2c(C)cc(C=C3C(=O)NC(=S)NC3=O)c2C)sc2c1CCCC2 | 2.99 | –
73 | O=c1c2c3c(sc2ncn1/N=C/c1ccc([N+](=O)[O-])o1)CCCC3 | 2.66 | –
74 | Oc1ccc(/C=C/c2ccc3cccc(O)c3n2)cc1Br | 4.26 | –
75 | O=C(OCC(=O)c1c[nH]c2ccccc12)c1ccc([N+](=O)[O-])s1 | 4.09 | –
76 | CSc1ccccc1OCc1cc(C(=O)N2CCN(C)C(c3ccccc3)C2)no1 (configuration not stated) | 2.25 | –
77 | O=C1C=CC2(O[C@H](c3ccccc3)[C@@H](c3ccccc3)O2)[C@H](Sc2ccccc2O)C1 | 3.46 | –
78 | Cc1ccc(C(c2cc(Cl)c3cccnc3c2O)N2CCN(C)CC2)cc1 (configuration not stated) | 0.507 | –
79 | CCCCCCCCCCOC(=O)Cn1c(COc2ccc(Cl)cc2)[n+](C)c2ccccc21 | 4.25 | –
80 | CCN1C/C(=C\c2cccc([N+](=O)[O-])c2)C(=O)/C(=C/c2cccc([N+](=O)[O-])c2)C1 | 5.63 | –
81 | Cc1ccc(NC(=S)N/N=C/c2ccc([N+](=O)[O-])s2)cc1 | 4.92 | –
82 | COc1ccc(S(=O)(=O)NC2CC3CCC2C3)cc1Cl (configuration not stated) | 1.56 | –
83 | Cc1ccc(N2C(=O)C3C4C=CC(CNC(=S)Nc5ccc(F)cc5)(O4)C3C2=O)cc1 (configuration not stated) | – | 9.97% (inactive)
84 | CC(=NNC(=S)N1CCN(C2CCCCCC2)CC1)c1ccccn1 | 3.95 | –
85 | CC1=C(C)/C(=N\OS(=O)(=O)c2ccc(C)cc2)C=CC1=O | 1.22 | –
86 | CSc1nc2cc(Oc3cccc(Cl)c3Cl)c(Cl)cc2[nH]1 | 6.41 | –
87 | O=[N+]([O-])c1ccc(O)c2ncccc12 | 1.66 | –
88 | COc1ccc2c(c1)[C@H]1[C@H](CO2)[C@H](c2ccccc2)[C@]2(C)C(=O)Nc3ccc(Br)cc3C(=O)N12 | 1.74 | –
89 | CC(=O)N1CCN(c2ccc(OC[C@H]3CO[C@](Cn4ccnc4)(c4ccc(Cl)cc4Cl)O3)cc2)CC1 | 1.29 | –
90 | Cc1ccc(N=Nc2ccc(O)cc2)c(Br)c1 | 8.33 | –
91 | CN(C)/C=C/C(=O)/C=C/c1cn(-c2ncc(C(F)(F)F)cc2Cl)c2ccccc12 | 4.18 | –
92 | COC(=O)[C@@H]1[C@@H](C#N)C2(c3ccccc3-c3ccccc32)N(c2ccc(Cl)cc2)N1C#N | 2.81 | –

Row | Structure (SMILES) | AC50 [µM] | activity change, negative = inhibition
93 | CC(C)(C)c1cc(-c2nc(N)nc(N)n2)c(O)c(C(C)(C)C)c1 | 15.1 | –
94 | CC[C@@H]1Cc2cc(O)ccc2C2=C1c1ccc(O)cc1C[C@H]2CC | 7.76 | –
95 | O=C(N/N=C/c1ccc(O)c2ncccc12)c1cccc(Br)c1 | 5.08 | –
96 | COc1ccc(N=Nc2ccc(O)c3ncccc23)cc1 | 4.61 | –
97 | COC(=O)C1CN(C#N)N(c2ccc(Cl)cc2)C12c1ccccc1-c1ccccc12 (configuration not stated) | 4.07 | –
98 | CC(=NNc1nc2ccccc2o1)c1ncccn1 | 1.33 | –
99 | Cc1[nH]oc(=O)c1N=Nc1c(Cl)cccc1Cl | 24.9 | –
100 | COc1ccc(NC(=O)/C(Cl)=C(/Cl)S(=O)Cc2ccc(Cl)cc2)cn1 (configuration not stated) | 0.837 | –
101 | CCCC(=O)NC(c1ccc(OC)c(OC)c1)c1cc(Cl)c2cccnc2c1O (configuration not stated) | 6.12 | –
102 | CC(C)N=c1scc(-c2cccs2)n1/N=C/c1ccc(O)c(O)c1O | 7.43 | –
103 | NC(=O)C1CCN(C2CC(=O)N(c3ccc(F)c(Cl)c3)C2=O)CC1 (configuration not stated) | 1.67 | –
104 | COc1ccccc1C(=O)NNC(=S)NC(=O)c1cccs1 | 6.92 | –
105 | O=C(/C=C/c1ccccc1Cl)c1ccc(O)cc1 | 4.63 | –
106 | O=C(O)c1ccccc1NC(c1ccccc1)c1ccc2cccnc2c1O (configuration not stated) | 4.87 | –
107 | CCc1ccc2c(c1)/C(=C/C(=O)c1cccs1)C(=O)N2 | 4.7 | –
108 | Oc1ccc(C=NN=C2c3ccccc3-c3ccccc32)c(O)c1 | 1.86 | –
109 | O=c1c2ccccc2nnn1CSc1nnc(COc2ccc(Cl)cc2)n1Cc1ccco1 | 3.31 | –
110 | COc1cccc(-c2nc(NC3CCCC3)c3ccccc3n2)c1O | 4.23 | –
111 | Cc1ccc(C(=O)OCn2ncc(Cl)c(Cl)c2=O)cc1 | 3.23 | –
112 | Cc1ccc(N2C(=O)C3C4C=CC(CNC(=S)Nc5cccc(Cl)c5)(O4)C3C2=O)cc1 (configuration not stated) | 8.74 | –
